In PubChem BioAssay (NCI) one finds TGI data, which are given here for twelve molecules.

Common to all, as to assay: NCI tumour cell line growth inhibition, 48 h
Experiment [1] relates to SNB-19 CNS.
The test system of experiment [2] is DU-145 prostate.
The test system of experiment [3] is A498 renal.
For experiment [4], the system named is NCI-H522 lung.
Experiment [5] relates to A549 NSCLC.
In experiment [6] the test system is 786-0 renal.
Experiment [7] has as its system U251 CNS.
Experiment [8] has as its system OVCAR-4 ovarian.
The subject of experiment [9] is CCRF-CEM leukemia.
For experiment [10], the system named is HCT-116 colon.
Experiment [11] relates to NCI-H23 lung.

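Cultured in 96-well plates, cells were exposed to test compound for 48 hours across five concentrations. TGI: concentration producing complete growth inhibition.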

In the case of `Cc1ccc(Nc2nc(=O)[nH]c(=O)[nH]2)cc1N`, the TGI in experiment [1], in experiment [2], in [3], in [4], in experiment [5] and in experiment [6] was over 100 µM in each case. Further, the TGI in experiment [7], in experiment [8], in experiment [9], in experiment [10] and in [11] was over 100 µM in each case.
`OC(CC(c1ccccc1)c1ccc(Cl)cc1)c1ccc(Cl)cc1` (stereo unspecified): the TGI is over 100 µM in [1]; over 100 µM in experiment [2]; 69.1 µM in [3]; 69.1 µM in experiment [4]; over 100 µM in experiment [5]; over 100 µM in experiment [6]. Moreover, the TGI is over 100 µM in experiment [7]; over 100 µM in [8]; over 100 µM in [9]; over 100 µM in [10]; 87.8 µM in [11].
Consider `Oc1c2cccc1Cc1cccc3c1OCCOCCOCCOCCOc1c(cccc1Cc1cccc(c1O)C3)C2`, for which the TGI in [1], in [2], in experiment [3], in experiment [4], in [5] and in experiment [6] was over 100 µM throughout. Moreover, the TGI in [7], in experiment [8], in experiment [9], in [10] and in experiment [11] was over 100 µM in each case.
Consider `O=C1/C(=C/c2cccc(Oc3ccccc3)c2)N=C(c2ccccc2)N1c1nc2ccc(Sc3ccccc3)cc2[nH]1`, for which the TGI in [1] was over 100 µM; in [2], over 100 µM; in [3] it was 81.2 µM; in experiment [4], 65.8 µM; in [5], over 100 µM; in experiment [6], over 100 µM. For the same molecule, the TGI in experiment [7], in experiment [8], in experiment [9], in experiment [10] and in experiment [11] was over 100 µM in each case.
With `O=C1c2cc3c(cc2CC12Cc1cc4c(cc1C2)CCC4)CCC3`, the TGI in experiment [1], in [2], in experiment [3], in [4], in experiment [5] and in [6] was over 100 µM each time. Further, the TGI in experiment [7], in experiment [8], in experiment [9], in experiment [10] and in [11] was over 100 µM throughout.
Take `CC1=NNC(N)=N/C1=C/C(Sc1ccc(Cl)cc1)c1cccs1` (stereo unspecified): the TGI came to 85.7 µM in [1]; 68.2 µM in experiment [2]; 37.1 µM in experiment [3]; 18.2 µM in [4]; 38.8 µM in experiment [5]; 82.4 µM in experiment [6]. Besides, the TGI was over 100 µM in experiment [7]; 76.6 µM in [8]; 9.79 µM in [9]; 29.8 µM in [10]; 52 µM in experiment [11].
As to `Cc1ccc(-c2cc(-c3ccc(Cl)cc3)nc(/N=C3\C(=O)N(CN4CCCCC4)c4ccc(Cl)cc43)n2)cc1`, the TGI in [1] was 34.7 µM; in experiment [2], over 100 µM; in experiment [3] it was 42.3 µM; in experiment [4], 27.8 µM; in [5], 57.2 µM; in experiment [6], 44.6 µM. Also, the TGI in experiment [7] was 76.2 µM; in experiment [8], over 100 µM; in [9], over 100 µM; in experiment [10] it was 76.1 µM; in experiment [11] it was 51.5 µM.
With `C=CCc1c(O)c2ccccc2[nH]c1=O`, the TGI in experiment [1], in [2], in experiment [3], in [4], in [5] and in experiment [6] was over 100 µM throughout. The TGI in experiment [7], in [8], in experiment [9], in [10] and in [11] was over 100 µM each time.
For the molecule `CCCCC[C@H](O)[C@H](C)C=C1SCCCS1`, the TGI in [1], in [2], in experiment [3], in [4], in experiment [5] and in experiment [6] was over 100 µM in each case. Also, the TGI in experiment [7], in [8], in [9], in experiment [10] and in [11] was over 100 µM each time.
With `C=C(CCOC)CCC1CCCCC(=C)C1=O` (stereo unspecified), the TGI in experiment [1], in experiment [2], in [3], in experiment [4], in [5] and in experiment [6] was over 100 µM in each case. The TGI in experiment [7], in experiment [8], in experiment [9], in [10] and in experiment [11] was over 100 µM in each case.
For `Cn1c(N)c(/C=N/NC(=O)CC#N)c(=O)n(C)c1=O`, the TGI in [1], in [2], in experiment [3], in experiment [4], in experiment [5] and in [6] was over 100 µM in each case. The TGI in experiment [7], in experiment [8], in experiment [9] and in experiment [10] was over 100 µM throughout.
Regarding `COc1ccc(C2CC(c3c(C)nn(-c4ccccc4)c3-c3ccc(C)cc3O)=NN2c2ccccc2)cc1` (stereo unspecified), the TGI in experiment [1], in experiment [2], in experiment [3], in [4], in experiment [5] and in [6] was over 100 µM each time. Also, the TGI is over 100 µM in experiment [7]; over 100 µM in experiment [8]; over 100 µM in experiment [9]; over 100 µM in [10]; over 30.3 µM in experiment [11].
